Test results published in patent publication US12667584B2, “Adenosine analog and its use in regulating the circadian clock” (NATIONAL INSTITUTE OF BIOLOGICAL SCIENCES, BEIJING, priority 2017, dated 2026).

How the values were obtained:
[1] = molecular target: Ruvbl2 (Homo sapiens, UniProt Q9Y230); experiment: SPR binding to RUVBL2 protein (Biacore T200); details: purified RUVBL2
Protocol: Biotinylated Compounds Pull-down, SPR analysis and Immunoprecipitation: The interaction between biotinylated compounds and their target proteins were proceeded as follow. Every 10^8 unsynchronized U2OS cells were collected, homogenized into 2 ml lysis buffer (25 mM MOPS pH7.2, 15 mM EGTA, 15 mM MgCl2, 1 mM DTT, 60 mM β-glycerophosphate, 1 mM Na3VO4, 1 mM NaF, 1 mM phenyl phosphate, Complete Protease Inhibitor Cocktail), and sonicated 6 times for 30 s at 4° C. with a Diagenode bioruptor. After sonication, NP-40 (final 0.5%) was added, incubated 15 min on ice, centrifuged at full speed for 20 min at 4° C. The resultant supernatant was firstly incubated with Pentostatin (final concentration at 5 μg/ml) for 2 h at 4° C. with rotation, and then split into 4 groups. 200 pmol cordycepin, 200 pmol DRB, and DMSO (2 groups, final 0.1%) was added respectively and further incubated for 1 h. […] The eluted protein was analyzed with western blot. The binding affinity of cordycepin against the RUVBL2 protein was measured via SPR technology using a Biacore T200 instrument (GE Healthcare) at room temperature. […] The binding kinetics and binding affinity of cordycepin against the RUVBL2 protein were determined with BIA evaluation software (GE healthcare). […] Immunoprecipitated protein complex was then washed 3 times with IP lysis buffer, boiled and analyzed with western blot. […]

[2] = system: Per2::Luc; experiment: In-vivo imaging of luciferase signal in Per2::Luc knockin mice; set-up: species or system mouse
Protocol: Drug injection and in-vivo imaging analysis: mPer2Luciferase knockin mice were housed in Germ Free Animal Facility, under 12 h light/dark photoperiod, with food and water ad libitum. 8 week-old male mPer2Luciferase knockin mice were intraperitoneal injection with 15 mg/kg bw CA03 or DMSO. CA03 was firstly dissolved in DMSO to the concentration of 200 μg/μl, then dilute with saline to the final concentration of 1000 μg/ml for intraperitoneal injection. 1 h later, d-luciferin (Gold Bio.) was intraperitoneally injected. Relative luciferase activity were imaged on IVIS Lumina III system and analysed with in-vivo imaging software (PerkinElmer). […]
Next, the inventors sought to determine whether the clock effects of cordycepin can be recaptured in vivo. […] This observation is especially true when nascent RNA levels were measured, highlighting the first-order, inductive response in E-box genes as previously proposed(FIG. 2B).
To test whether cordycepin function in vivo, we firstly tested luciferase signal level by live imaging of Per2:LUC mice after intraperitoneal injection of 15 mg/kg cordycepin or DMSO. […] Prior evaluation the jet-leg cure ability of cordycepin, we detected whether cordycepin and it's prodrug pro-CA03 can penetrate BBB. We injected cordycepin or pro-CA03 via tail vein and time course sampled CSF and analyzed cordycepin pro-CA03 level with HPLC-MASS method. […]

Sequence of Ruvbl2 (Q9Y230 whole entry): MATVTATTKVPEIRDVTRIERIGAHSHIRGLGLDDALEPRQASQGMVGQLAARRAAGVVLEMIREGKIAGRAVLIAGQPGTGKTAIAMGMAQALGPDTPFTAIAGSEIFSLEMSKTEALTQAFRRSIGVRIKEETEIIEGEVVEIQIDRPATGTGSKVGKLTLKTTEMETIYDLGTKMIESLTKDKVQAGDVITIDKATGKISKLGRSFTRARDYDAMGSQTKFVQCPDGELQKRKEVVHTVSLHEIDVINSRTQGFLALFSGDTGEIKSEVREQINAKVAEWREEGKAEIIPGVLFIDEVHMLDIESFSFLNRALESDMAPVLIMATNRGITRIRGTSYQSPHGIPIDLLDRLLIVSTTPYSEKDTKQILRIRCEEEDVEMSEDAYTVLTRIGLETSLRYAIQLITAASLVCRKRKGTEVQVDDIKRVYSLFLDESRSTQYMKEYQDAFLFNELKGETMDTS

Nc1ncnc2c1ncn2[C@@H]1O[C@H](CO)C[C@H]1O [Cordycepin, 3′-deoxy-adenosine] was tested, and the Kd [1] was about 500 nM, the “increase of luciferase signal in liver compared with DMSO control” value ([2]; 15 mg/kg intraperitoneal) was “more than 4 folds” and the “time to induction of luciferase signal after drug administration” value ([2]; i.p. at ZT4) was at most 1 h.
